Laboratory results: US11180459B2, “Bacterial efflux pump inhibitors” (RUTGERS, THE STATE UNIVERSITY OF NEW JERSEY, priority 2017, dated 2021)
Structures can show the parent of a compound that is named as a salt. Marks after values point to notes of the source that are not given here.

How the values were obtained:
[1] = test system: P. aeruginosa [ATCC 27853]; assay: Mouse septicemia model of infection; format: in vivo, Swiss Webster female mice; settings: Experiment #521, cefepime 10 mg/ml b.i.d.
Procedure: A general method for the in vivo assessment of bacterial EPIs is complicated by the fact that that both the antibiotic and the EPI need to be present for synergy to be achieved. A general method was discovered that has proven to be effective in establishing the relative efficacy of bacterial EPIs in a mouse septicemia model. The bacterial EPI is administered initially intravenously to mice with septicemia, followed 5 minutes later by the intravenous administration or oral administration of the antibiotic. A second administration of the EPI is then administered subcutaneously after an additional 5 minutes to act as a booster, followed by the final administration of the antibiotic either intravenously or orally after the second administration of the EPI. […] In a few instances, a second regiment of both EPI and antibiotic as administered on day 1 was required after 24 hours to affect cures.
Determination of the in vivo efficacy of bacterial efflux pump inhibitors (EPIs) can be efficiently determined using a mouse septicemia model of infection. The systemic infection is initiated by a 500 ul intraperitoneal injection of an inoculum containing bacteria (such as P. aeruginosa [ATCC 27853]) at a concentration of approximately 5×10^5 cells in 5% mucin in Swiss Webster female mice. […]

P. aeruginosa ATCC 27853 = assay: Pre-exposure bacterial EPI assay (MIC against bacteria pre-exposed to 1/2 x MIC antibiotic); format: cell-based; settings: Pseudomonas aeruginosa, ATCC27853, read-out: MIC of cefepime against P. aeruginosa pre-exposed to cefepime
Excerpt: The principle underlying this pre-exposure is that exposure of the bacteria to sub-inhibitory concentrations of the test antibiotic will induce expression of efflux pumps, if any, and may represent the scenario in vivo more accurately.

[2] = test system: Escherichia coli ATCC 25922; assay: Standard EPI assay: clarithromycin MIC with EPI; format: cell-based; settings: clarithromycin as antibiotic; E. coli ATCC 25922; EPI at 6.25 (μg)
Procedure: (§1) MIC assays were conducted in accordance with Clinical and Laboratory Standards Institute (CLSI) guidelines for broth microdilution.
(§2) The EPI assay for the purposes of these studies represents a MIC assay in which the MIC of the antibiotic against the bacteria is tested in the presence of an experimental efflux pump inhibitor (EPI). The highest concentration of the EPI present in the assay typically is ½ of the intrinsic MIC of the compound. If the intrinsic MIC of the EPI is greater than 100 μg/mL, the EPI assay was tested with 50 μg/mL. Using serial dilutions of the EPI, its enhancement of antibiotic activity was then evaluated. The relative EPI activity was decided by comparing the MIC of the antibiotic in the presence of the EPI compound with the intrinsic MIC of the antibiotic alone. For the evaluation of the efficacy of an EPI against bacteria that were pre-exposed to an antibiotic, the inoculum of bacteria that used was developed from a bacterial culture isolated as a single colony following exposure at ½ the MIIC of the antibiotic (so as to induce efflux pump expression), was to be used in combination with the EPI.
(§3) In our standard EPI assay, the MIC of the test antibiotic is determined in the absence and presence of sub-inhibitory concentrations of the EPI. Initially, the sub-inhibitory concentration used was ½×MIC of the EPI. […] The MIC of levofloxacin against P. aeruginosa ATCC 27853 in the absence of EPI is 1 μg/mL. […] Similar methodology was employed to examine the synergy with Escherichia coli ATCC 25922 in the presence of varied concentrations of these EPIs using clarithromycin as the antibiotic.

[3] = test system: Pseudomonas aeruginosa ATCC 27853; assay: Standard EPI assay: levofloxacin MIC with EPI; format: cell-based; settings: levofloxacin as antibiotic; P. aeruginosa ATCC 27853; EPI at 12.5 (μg)
Procedure: as §1, §2, §3

CO/N=C(\C(=O)N[C@@H]1C(=O)N2C(C(=O)[O-])=C(C[N+]3(C)CCCC3)CS[C@H]12)c1csc(N)n1 [cefepime, reference compound]
% Survival (72 hr) Antibiotic Only ([1]; 250 ul): 25%***** | MIC (P. aeruginosa ATCC 27853): 16 µg/mL

NC[C@H]1CN[C@H](CNC(=O)c2nc3cc(-c4ccc(F)cc4)ccc3[nH]2)C1 [Example 22, N-(((2S,4S)-4-(aminomethyl)pyrrolidin-2-yl)methyl)-5-(4-fluorophenyl)-1H-benzo[d]imidazole-2-carboxamidedihydrochloride]
% Survival (72 hr) Antibiotic + EPI ([1]; 250 ul + Example 22 2.0 mg/ml b.i.d.): 75% | Enhanced Activity in E. coli (fold enhancement of antibiotic activity / EPI concentration) [2]: 2×/6.25 | Enhanced Activity in P. aeruginosa (fold enhancement of antibiotic activity / EPI concentration) [3]: 32×/12.5
